Laboratory results: patent US20220340665A1, “INHIBITOR AGAINST EXPRESSION OF IMMUNE CHECKPOINT MOLECULE” (RENASCIENCE INC., priority 2019, published 2022)

Biological target: human PAI-1 (Homo sapiens, UniProt P05121)
Assay: PAI-1 inhibitory activity, t-PA with Spectrozyme t-PA chromogenic substrate (Reference Experimental Example 2)
Type: biochemical
Set-up: purchased Molecular Innovations, Inc. (USA)
Protocol: Subsequently, human-derived tissue plasminogen activator (t-PA) (manufactured by American Diagnostica, Inc. (USA); the same applies hereinafter) adjusted to 0.05 pmol/μL was added thereto, and the mixture was further incubated at 37° C. for 60 minutes. Then, 0.25 mM of Spectrozyme t-PA synthetic substrate (manufactured by American Diagnostica, Inc. (USA); the same applies hereinafter), which is a chromogenic substrate, was added. […]
Free p-nitroaniline removed from the chromogenic substrate (Spectrozyme t-PA) by t-PA action was measured using a spectrophotometer at an absorbance of 405 nm at 20-minute intervals, for 120 minutes.

[1] = Tables 5 to 7, first value column, head prints no concentration
[2] = Tables 5 to 7, second value column, head prints no concentration
[3] = compound 10 μm (head), system without compound after 120 minutes = 100%
[4] = compound 25 μm (head), system without compound after 120 minutes = 100%

Chain of human PAI-1 (P05121 24-402): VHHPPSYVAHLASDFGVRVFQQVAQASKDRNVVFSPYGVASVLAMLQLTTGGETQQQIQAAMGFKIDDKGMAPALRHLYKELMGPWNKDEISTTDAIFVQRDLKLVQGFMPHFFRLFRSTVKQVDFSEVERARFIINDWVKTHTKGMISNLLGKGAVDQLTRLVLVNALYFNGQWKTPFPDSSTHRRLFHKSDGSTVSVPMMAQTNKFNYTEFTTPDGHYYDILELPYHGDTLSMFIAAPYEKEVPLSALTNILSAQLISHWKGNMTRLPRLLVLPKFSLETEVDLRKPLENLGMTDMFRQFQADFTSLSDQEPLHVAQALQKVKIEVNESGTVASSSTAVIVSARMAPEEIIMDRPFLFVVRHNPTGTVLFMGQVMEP

Q: How did the PAI-1 activity % [1] turn out when “2-((biphenyl-4-ylcarbonoyl)amino)-5-chlorobenzoic acid [Example 71]” was run?
A: 2.1%

Q: What about the PAI-1 activity % [2] of the same compound?
A: 39.6%

Q: How did the PAI-1 activity % [3] turn out when “5-chloro-2-((3-(3-(furan-3-yl)phenyl)propenoyl)amino)benzoic acid [Example 36]” was run?
A: 3.7%

Q: And the PAI-1 activity % [4]?
A: 95.7%

Q: Which results are given for “5-chloro-2-(((3-(cyclohex-1-en-1yl)phenyl)acetyl)amino)benzoic acid [Example 25]”?
A: PAI-1 activity % [3]: 0.0%; PAI-1 activity % [4]: 85.8%

Q: With “5-chloro-2-(((4-(methylcyclohexyl)phenyl)carbonyl)amino)benzoic acid [Example 98]” as the compound, how does the PAI-1 activity % [1] read?
A: 0.1%

Q: And the PAI-1 activity % [2]?
A: 41.5%

Q: Which results are given for `O=C(Nc1ccc(Cl)cc1C(=O)[O-])c1cccc(-c2ccncc2)c1.[Na+]` [Example 8, 5-chloro-2-(((3-(pyridin-4-yl)phenyl)carbonyl)amino)sodium benzoate]?
A: PAI-1 activity % [3]: 28.5%; PAI-1 activity % [4]: 100.3%

Q: `CC(C)(C)c1cccc(OCC(=O)Nc2ccc(Cl)cc2C(=O)O)c1` [Example 16, 2-(((3-tert-butylphenoxy)acetyl)amino)-5-chlorobenzioc acid] was tested. Which PAI-1 activity % [3] did it give?
A: 21.9%

Q: What about the PAI-1 activity % [4] of the same compound?
A: 77.4%

Q: For `CC(C)(C)c1cccc(OCC(=O)Nc2ccc(Cl)cc2C(=O)O)c1` [Example 18, 2-(((3-tert-butylphenoxy)acetyl)amino)-5-chlorobenzoic acid], which PAI-1 activity % [3] is on record?
A: 16.1%

Q: What about the PAI-1 activity % [4] of the same compound?
A: 81.4%

Q: For `O=C(COc1ccc(C23CC4CC(CC(C4)C2)C3)cc1)Nc1ccc(Cl)cc1C(=O)O` [Example 21], which PAI-1 activity % [3] is on record?
A: 0.3%

Q: What about the PAI-1 activity % [4] of the same compound?
A: 10.0%

Q: `Cn1c(C(=O)Nc2ccc(Cl)cc2C(=O)O)cc2cc(Br)ccc21` [Example 23] was tested. Which PAI-1 activity % [3] did it give?
A: 1.8%

Q: And the PAI-1 activity % [4]?
A: 97.3%

Q: With `O=C(COc1cccc(C23CC4CC(CC(C4)C2)C3)c1)Nc1ccc(Cl)cc1C(=O)O` [Example 30] as the compound, how does the PAI-1 activity % [3] read?
A: 1.3%

Q: What about the PAI-1 activity % [4] of the same compound?
A: 19.3%

Q: How did the PAI-1 activity % [3] turn out when `O=C(O)c1cc(Cl)ccc1NC(=O)C1CCCN(C(=O)c2cccc(-c3ccccc3)c2)C1` (centres unmarked) [Example 31, 2-(((1-(biphenyl-3-ylcarbonyl)pipendin-3-yl)carbonyl)amino)-5-chlorobenzoic acid] was run?
A: 20.2%

Q: What about the PAI-1 activity % [4] of the same compound?
A: 88.0%

Q: For `O=C(Nc1ccc(Cl)cc1C(=O)O)c1ccc(C2=CCOCC2)cc1` [Example 32, 5-chloro-2-(((4'-(3,6-dihydro-2H-pyran-4-yl)phenyl)carbonyl)amino)benzoic acid], which PAI-1 activity % [3] is on record?
A: 1.7%

Q: What about the PAI-1 activity % [4] of the same compound?
A: 94.4%

Q: Which results are given for `O=C(Nc1ccc(Cl)cc1C(=O)O)c1ccc(C2=CCOCC2)cc1` [Example 34, 5-chloro-2-(((4-(3,6-dihyrdo-2H-pyran-4-yl)phenyl)carbonyl)amino)benzoic acid]?
A: PAI-1 activity % [3]: 45.1%; PAI-1 activity % [4]: 97.1%

Q: `O=C(O)c1cc(Cl)ccc1NC(=O)C1(c2cccc(-c3ccoc3)c2)CC1` [Example 35, 5-chloro-2-(((1-(3-(furan-3-yl)phenyl)cyclopropyl)carbonyl)amino)benzoic acid] was tested. Which PAI-1 activity % [4] did it give?
A: 96.8%

Q: For `O=C(O)c1cc(Cl)ccc1NC(=O)c1cccc2c1Cc1ccccc1-2` [Example 38, 5-chloro-2-((9H-fluoren-1-ylcarbonyl)amino)benzoic acid], which PAI-1 activity % [4] is on record?
A: 94.6%

Q: With `CC(C)(Oc1cccc(-c2ccoc2)c1)C(=O)Nc1ccc(Cl)cc1C(=O)O` [Example 44, 5-chloro-2-((2-(3-(furan-3-yl)phenoxy)-2-methylpropenoyl)amino)benzoic acid] as the compound, how does the PAI-1 activity % [3] read?
A: 20.4%

Q: And the PAI-1 activity % [4]?
A: 97.6%

Q: How did the PAI-1 activity % [3] turn out when `O=C(COc1ccccc1-c1ccccc1)Nc1ccc(-c2ccoc2)cc1C(=O)O` [Example 46, 2-(((biphenyl-2-yloxy)acetyl)amino)-5-(furan-3-yl)benzoic acid] was run?
A: 0.4%

Q: And the PAI-1 activity % [4]?
A: 69.9%

Q: Which PAI-1 activity % [3] does the source give for `O=C(Nc1ccc(Cl)cc1C(=O)O)c1ccc(C(=O)C23CC4CC(CC(C4)C2)C3)cc1` [Example 56] here?
A: 0.7%

Q: And the PAI-1 activity % [4]?
A: 75.8%

Q: `O=C(Nc1ccc(Cl)cc1C(=O)O)C(=O)c1c[nH]c2ccc(OCc3ccccc3)cc12` [Example 57, 2-(((5-(benzyloxy)-1H-indol-3-yl)(oxo)acetyl)amino)-5-chlorobenzoic acid] was tested. Which PAI-1 activity % [4] did it give?
A: 36.6%

Q: With `O=C(Nc1ccc(Cl)cc1C(=O)O)c1cccc(-c2cccc3ccccc23)c1` [Example 58, 5-chloro-2-(((3-(naphthalen-1-yl)phenyl)carbonyl)amino)benzoic acid] as the compound, how does the PAI-1 activity % [3] read?
A: 0.0%

Q: What about the PAI-1 activity % [4] of the same compound?
A: 0.0%

Q: With `COc1ccccc1-c1cccc(OCC(=O)Nc2ccc(Cl)cc2C(=O)O)c1` [Example 61, 5-chloro-2-((((2'-methoxybiphenyl-3-yl)oxy)acetyl)amino)benzoic acid] as the compound, how does the PAI-1 activity % [3] read?
A: 36.9%

Q: What does the source list for `O=C(Nc1ccc(Cl)cc1C(=O)[O-])c1cccc(-c2cnc3ccccc3c2)c1.[Na+]` [Example 63, 5-chloro-2-(((3-(quinolin-3-yl)phenyl)carbonyl)amino)sodium benzoate]?
A: PAI-1 activity % [3]: 0.3%; PAI-1 activity % [4]: 21.3%

Q: How did the PAI-1 activity % [3] turn out when `O=C(Nc1ccc(Cl)cc1C(=O)[O-])c1cccc(-c2cncc3ccccc23)c1.[Na+]` [Example 64, 5-chloro-2-(((3-(isoquinolin-4-yl)phenyl)carbonyl)amino)sodium benzoate] was run?
A: 0.7%

Q: And the PAI-1 activity % [4]?
A: 74.3%

Q: For `O=C(Nc1ccc(Cl)cc1C(=O)[O-])c1cccc(-c2cccc3ncccc23)c1.[Na+]` [Example 65, 5-chloro-2-(((3-(quinolin-50yl)phenyl)carbonyl)amino)sodium benzoate], which PAI-1 activity % [3] is on record?
A: 0.4%

Q: And the PAI-1 activity % [4]?
A: 71.7%

Q: Which results are given for `O=C(Nc1ccc(Cl)cc1C(=O)[O-])c1cccc(-c2cccc3cnccc23)c1.[Na+]` [Example 66]?
A: PAI-1 activity % [3]: 0.1%; PAI-1 activity % [4]: 22.6%

Q: Which results are given for `O=C(Nc1ccc(Cl)cc1C(=O)[O-])c1ccc(-c2cccc3cccnc23)cc1.[Na+]` [Example 67, 5-chloro-2-(((4-(quinolin-8-yl)phenyl)carbonyl)amino)sodium benzoate]?
A: PAI-1 activity % [3]: 0.6%; PAI-1 activity % [4]: 90.4%

Q: Which results are given for `Cl.O=C(O)c1cc(Cl)ccc1NC(=O)N1CCN(C(c2ccccc2)c2ccccc2)CC1` [Example 75, 5-chloro-2-(((4-(diphenylmethyl)piperacin-1-yl)carbonyl)amino)benzoic acid hydrochloride]?
A: PAI-1 activity % [1]: 4.7%; PAI-1 activity % [2]: 86.4%

Q: How did the PAI-1 activity % [1] turn out when `O=C(COC(c1ccccc1)c1ccccc1)Nc1ccc(Cl)cc1C(=O)O` [Example 76, 5-chloro-2-(((diphenylmethoxy)acetyl)amino)benzoic acid] was run?
A: 30.5%

Q: For `O=C(CN1CCN(C(c2ccccc2)c2ccccc2)CC1)Nc1ccc(Cl)cc1C(=O)O` [Example 77, 5-chloro-2-(((4-(diphenylmethyl)piperazin-1-yl)acetyl)amino)benzoic acid], which PAI-1 activity % [2] is on record?
A: 69.6%

Q: For `O=C(Nc1ccc(Cl)cc1C(=O)O)c1cccc(C2=CCCCC2)c1` [Example 79, 5-chloro-2-(((3-(cyclohex-1-en-1yl-)phenyl)carbonyl)amino)benzoic acid], which PAI-1 activity % [1] is on record?
A: 1.6%

Q: And the PAI-1 activity % [2]?
A: 44.5%

Q: Which PAI-1 activity % [1] does the source give for `O=C(Nc1ccc(C2=CCCCC2)cc1C(=O)O)c1ccc(C2CCCCC2)cc1` [Example 81, 5-(cyclohex-1-en-1-yl)-2-(((4-cylcohexylphenyl)carbonyl)amino)benzoic acid] here?
A: 0.0%

Q: What about the PAI-1 activity % [2] of the same compound?
A: 1.0%
